The target of experiment [1] is T1, Angiotensin-converting enzyme (Rattus norvegicus) (UniProt P47820).
T1 sequence (whole entry): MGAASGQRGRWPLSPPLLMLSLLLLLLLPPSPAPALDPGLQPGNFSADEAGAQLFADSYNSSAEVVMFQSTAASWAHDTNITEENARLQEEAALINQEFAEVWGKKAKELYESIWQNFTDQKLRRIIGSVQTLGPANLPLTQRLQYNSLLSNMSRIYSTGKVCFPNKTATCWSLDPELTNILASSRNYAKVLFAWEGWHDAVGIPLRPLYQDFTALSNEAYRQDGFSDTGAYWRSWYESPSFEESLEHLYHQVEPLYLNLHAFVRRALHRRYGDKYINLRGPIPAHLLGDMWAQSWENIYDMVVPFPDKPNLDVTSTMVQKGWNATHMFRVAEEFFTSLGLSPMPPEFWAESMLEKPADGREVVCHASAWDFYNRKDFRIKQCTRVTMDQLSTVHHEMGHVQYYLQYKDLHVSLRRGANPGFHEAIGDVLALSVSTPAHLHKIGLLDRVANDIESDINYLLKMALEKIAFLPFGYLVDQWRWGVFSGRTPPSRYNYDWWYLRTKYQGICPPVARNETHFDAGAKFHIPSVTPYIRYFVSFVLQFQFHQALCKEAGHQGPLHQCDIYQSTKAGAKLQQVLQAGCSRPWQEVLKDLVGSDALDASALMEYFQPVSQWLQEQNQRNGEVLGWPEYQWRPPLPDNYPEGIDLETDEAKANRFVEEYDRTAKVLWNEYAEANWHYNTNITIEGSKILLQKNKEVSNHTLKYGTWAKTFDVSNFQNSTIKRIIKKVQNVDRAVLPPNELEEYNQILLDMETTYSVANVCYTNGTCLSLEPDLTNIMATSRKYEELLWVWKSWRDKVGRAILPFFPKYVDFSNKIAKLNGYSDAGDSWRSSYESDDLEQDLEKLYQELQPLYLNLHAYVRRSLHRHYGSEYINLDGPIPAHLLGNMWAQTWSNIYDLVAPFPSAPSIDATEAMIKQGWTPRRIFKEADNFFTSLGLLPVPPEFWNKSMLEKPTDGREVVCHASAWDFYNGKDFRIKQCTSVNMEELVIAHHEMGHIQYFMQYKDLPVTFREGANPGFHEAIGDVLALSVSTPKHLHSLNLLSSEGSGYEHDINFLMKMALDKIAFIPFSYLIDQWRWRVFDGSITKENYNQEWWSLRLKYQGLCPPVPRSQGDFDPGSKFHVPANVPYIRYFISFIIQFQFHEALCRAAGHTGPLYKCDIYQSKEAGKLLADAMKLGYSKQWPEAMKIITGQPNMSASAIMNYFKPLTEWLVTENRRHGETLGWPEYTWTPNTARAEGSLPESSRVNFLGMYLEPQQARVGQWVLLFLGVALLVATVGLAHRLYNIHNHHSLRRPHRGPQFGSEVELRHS
Kind of experiment: In vivo inhibition of ACE in iv dosed rat assessed as inhibition of Ang1 induced pressor response. Type of experiment: functional, organism-based.

Experiment [2] concerns the target T2, B2 bradykinin receptor (Homo sapiens) (UniProt P30411).
T2 sequence (whole entry): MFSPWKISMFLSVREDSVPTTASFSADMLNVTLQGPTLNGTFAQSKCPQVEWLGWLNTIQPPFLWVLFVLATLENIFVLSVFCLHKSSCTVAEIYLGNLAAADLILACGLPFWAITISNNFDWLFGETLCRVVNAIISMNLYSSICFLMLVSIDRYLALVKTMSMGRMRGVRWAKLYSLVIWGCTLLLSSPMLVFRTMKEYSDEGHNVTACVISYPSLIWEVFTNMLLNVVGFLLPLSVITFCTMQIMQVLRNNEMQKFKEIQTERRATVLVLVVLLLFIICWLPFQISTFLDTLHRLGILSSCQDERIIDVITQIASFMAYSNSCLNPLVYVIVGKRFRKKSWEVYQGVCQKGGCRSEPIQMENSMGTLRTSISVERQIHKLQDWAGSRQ
Kind of experiment: Inhibition of B2 bradykinin receptor (unknown origin) at 10 mM relative to control.

The source of these data is ChEMBL document CHEMBL5257037, “Side Chain Cyclized Aromatic Amino Acids: Great Tools as Local Constraints in Peptide and Peptidomimetic Design” (J Med Chem, 2016).

Regarding `C[C@H](NC(=O)[C@@H](S)Cc1ccccc1)C(=O)N1CCC[C@H]1C(=O)O`, in experiment [1], the ED50 was 0.06 µmol/kg.

As to `C[C@H](NC(=O)[C@@H](CS)Cc1ccccc1)C(=O)N1c2ccccc2C[C@H]1C(=O)O`, the ED50 in experiment [1] came out at 0.15 µmol/kg.

Regarding `C[C@H](NC(=O)[C@@H](CS)Cc1ccccc1)C(=O)N1Cc2ccccc2C[C@H]1C(=O)O`, the ED50 in experiment [1] is 0.57 µmol/kg.

With `C[C@@H](C(=O)N[C@@H](CCCNC(=N)N)C(=O)O)N1Cc2ccccc2C[C@@H](NC(=O)[C@H](CO)NC(=O)[C@H](Cc2ccccc2)NC(=O)CNC(=O)[C@@H]2CCCN2C(=O)[C@@H]2CCCN2C(=O)[C@@H](N)CCCNC(=N)N)C1=O`, in experiment [2], the inhibition worked out at 54%.

On to `C[C@H](NC(=O)[C@@H](CS)Cc1ccccc1)C(=O)N1CCC[C@H]1C(=O)O`, for which, in experiment [1], the ED50 is 0.5 µmol/kg.

On to `O=C(O)CN1C(=O)[C@@H](NC(=O)[C@@H](S)Cc2ccccc2)CCc2ccccc21`, for which the ED50 in experiment [1] worked out at 0.02 µmol/kg.

Broadly, the ED50 is the midpoint of the dose-response relation. In general, inhibition refers to the relative decrease from the control value, in per cent. High values mean strong suppression, low ones little suppression.
